Measured values: patent US9512406B2, “Generating hepatocytes” (The J. David Gladstone Institutes, a testamentary trust …, priority 2013, dated 2016)
Numbered stars: 1 amine (or outer) side, 2 acyl side, 3 side chain; on linkers, the order of the positions; unused ones are H or OH. Square brackets hold non-standard residues; d marks the D form. Peptide text beside a SMILES is read from it. * marks the point of attachment. X1 = CC(N[*:1])C(=O)C(F)(F)C(=O)[*:2]; Boc = CC(C)(C)OC(=O)*

Legend:
[1] = system: Human newborn fibroblasts (CRL-2097, ATCC); test: Reprogramming of newborn fibroblasts to endoderm, FOXA2-positive colonies by immunostaining; details: day 28; added to CHIR/Activin A reprogramming medium
Method: The small molecules tested included combinations of CHIR99021 (CH), dilauroyl phosphatidylcholine (DLPC), sodium butyrate (NaB), parnate (Par), and RG108 (RG). […] Medium containing Activin A was additionally supplemented with the indicated small molecules.
Standard immunostaining was carried out as previously reported. […] Nuclei were visualized by Hoechst (Sigma-Aldrich) staining. Images were captured using a Nikon Eclipse TE2000-U microscope.
Next, EGF and bFGF were replaced with Activin A to induce Nodal signaling and promote endoderm fate (see FIG. 1A). […] To improve the efficiency of endoderm differentiation, the cells were exposed to several small molecules.

[2] = biological target: T1, calpain II (Homo sapiens, UniProt P17655); details: purified enzyme assay; read-out: IC50 against calpain II; cited from earlier work
T1 sequence (P17655 1-700): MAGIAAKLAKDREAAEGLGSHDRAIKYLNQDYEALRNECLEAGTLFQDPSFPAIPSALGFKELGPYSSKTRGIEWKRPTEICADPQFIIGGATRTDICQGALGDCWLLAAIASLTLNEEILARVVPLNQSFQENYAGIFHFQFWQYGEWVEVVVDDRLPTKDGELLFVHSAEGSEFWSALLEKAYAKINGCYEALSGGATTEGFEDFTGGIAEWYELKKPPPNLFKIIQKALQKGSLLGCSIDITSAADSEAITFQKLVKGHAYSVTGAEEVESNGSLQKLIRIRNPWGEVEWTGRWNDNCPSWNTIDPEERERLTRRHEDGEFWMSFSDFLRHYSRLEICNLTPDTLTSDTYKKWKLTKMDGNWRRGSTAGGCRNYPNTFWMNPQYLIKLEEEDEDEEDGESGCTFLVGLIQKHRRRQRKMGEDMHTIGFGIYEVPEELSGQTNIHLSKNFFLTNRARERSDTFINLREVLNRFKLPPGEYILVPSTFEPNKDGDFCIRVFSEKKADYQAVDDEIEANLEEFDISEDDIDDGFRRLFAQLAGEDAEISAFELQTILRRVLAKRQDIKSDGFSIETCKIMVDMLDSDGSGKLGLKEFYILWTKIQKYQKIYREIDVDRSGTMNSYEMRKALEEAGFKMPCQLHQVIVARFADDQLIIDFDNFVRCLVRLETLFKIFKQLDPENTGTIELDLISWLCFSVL
T1 sequence (P04632 1-268 partner): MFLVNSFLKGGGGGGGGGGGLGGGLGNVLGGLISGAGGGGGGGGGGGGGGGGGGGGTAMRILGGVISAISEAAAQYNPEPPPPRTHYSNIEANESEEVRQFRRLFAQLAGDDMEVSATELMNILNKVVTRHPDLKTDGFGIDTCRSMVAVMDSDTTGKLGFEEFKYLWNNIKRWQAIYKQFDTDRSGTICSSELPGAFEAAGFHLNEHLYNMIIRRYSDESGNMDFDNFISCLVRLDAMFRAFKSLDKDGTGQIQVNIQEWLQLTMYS

[3] = system: histone deacetylases (HDACs); details: isoform not stated; read-out: IC50 (histone deacetylase inhibition); cited from earlier work
[4] = system: iMPC-EPCs; test: Expansion of iMPC-EPC colonies
[5] = biological target: CYP2D6 (Homo sapiens, UniProt P10635); details: 2 mg/kg debrisoquine by gavage; mice repopulated with iMPC-Heps or aHeps
Chain of CYP2D6 (P10635 whole entry): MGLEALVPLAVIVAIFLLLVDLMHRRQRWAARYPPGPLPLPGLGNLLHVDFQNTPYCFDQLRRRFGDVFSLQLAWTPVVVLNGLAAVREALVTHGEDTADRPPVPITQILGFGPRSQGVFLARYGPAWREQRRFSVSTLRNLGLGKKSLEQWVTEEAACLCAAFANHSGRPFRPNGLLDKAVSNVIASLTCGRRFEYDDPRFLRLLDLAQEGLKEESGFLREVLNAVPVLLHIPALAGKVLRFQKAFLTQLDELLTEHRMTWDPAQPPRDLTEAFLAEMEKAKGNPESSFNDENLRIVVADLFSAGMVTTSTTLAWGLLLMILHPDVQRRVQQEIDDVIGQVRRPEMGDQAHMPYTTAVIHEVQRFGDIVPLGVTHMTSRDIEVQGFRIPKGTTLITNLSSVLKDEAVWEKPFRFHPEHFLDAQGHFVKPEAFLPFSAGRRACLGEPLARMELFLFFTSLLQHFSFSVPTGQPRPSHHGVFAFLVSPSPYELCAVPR
Excerpt: Scale bar=100 μm. […] Scale bars=100 μm. […] Scale bars=100 μm.

[6] = biological target: γ-secretase; details: for total β-amyloid; cited from earlier work
[7] = system: presenilase; details: at higher concentrations (20-400 μM); cited from earlier work
[8] = system: iMPC-EPCs; test: Hepatocyte differentiation of iMPC-EPCs, ALB gene expression by qRT-PCR; details: day 18 of hepatocyte specification; particularly when applied together
Method: Error bars represent SEM of technical replicates (n=3).
For qRT-PCR analysis, total RNA was extracted using the miRNeasy Mini Kit (Qiagen) or RNeasy Plus Mini Kit in combination with QIAshredder (Qiagen). First-strand reverse transcription was performed with 0.5-1 μg RNA using the iScript cDNA Synthesis Kit (BioRad) or qScript cDNA Supermix (Quanta Biosciences). qRT-PCR was performed using PerfeCTa SYBR Green SuperMix (Quanta) or iQ SYBR Green Supermix (Bio-Rad) on an Applied Biosciences ViiA 7 Real-Time PCR System (Invitrogen). aHeps purchased from Yecuris or the Liver Tissue Cell Distribution System (LTCDS) were shipped overnight in suspension, centrifuged for 5 minutes at 300×g immediately after arrival, and stored as cell pellets at −80° C. prior to RNA extraction.
To improve hepatocyte differentiation, small molecules were screened for induction of ALB gene expression.

[9] = system: HDAC activity in HeLa extracts; details: read-out: IC50 for inhibition of HDAC activity; cited from earlier work
[10] = biological target: SAPK2/p38 (Homo sapiens, UniProt Q16539); details: CK1 and ALK5 inhibitor versus SAPK2/p38; cited from earlier work
Chain of SAPK2/p38 (Q16539 whole entry): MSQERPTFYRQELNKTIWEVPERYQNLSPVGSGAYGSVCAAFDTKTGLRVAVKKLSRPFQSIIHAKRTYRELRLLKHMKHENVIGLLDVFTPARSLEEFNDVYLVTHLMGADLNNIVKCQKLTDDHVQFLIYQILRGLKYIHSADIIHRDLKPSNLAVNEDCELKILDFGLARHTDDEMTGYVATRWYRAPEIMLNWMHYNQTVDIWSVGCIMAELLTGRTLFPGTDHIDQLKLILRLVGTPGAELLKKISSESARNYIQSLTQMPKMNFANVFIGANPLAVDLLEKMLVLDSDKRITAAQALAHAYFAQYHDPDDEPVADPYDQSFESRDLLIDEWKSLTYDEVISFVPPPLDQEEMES

CCCCCCCCCCCC(=O)OC[C@H](COP(=O)([O-])OCC[N+](C)(C)C)OC(=O)CCCCCCCCCCC [Dilauroyl phosphatidylcholine]
increase in the number of FOXA2-positive colonies [1]: 2 fold

CCC(C)C(NC(=O)C(NC(=O)OC(C)(C)C)C(C)C)C(=O)NC(C)C(=O)C(F)(F)C(=O)NC(C(=O)NC(C(=O)OC)C(C)CC)C(C)C (stereo not shown) [Gamma-Secretase Inhibitor II] (Boc-VI[X1]VI-OMe; configuration not given here)
IC50 [2]: 100000 nM

CC(/C=C/C(=O)NO)=C\[C@@H](C)C(=O)c1ccc(N(C)C)cc1 [Trichostatin A, (R,2E,4E)-6-(4-(dimethylamino)benzoyl)-N-hydroxy-4-methylhepta-2,4-dienamide]
IC50 [3]: ~1.8 nM

bFGF: basic fibroblast growth factor
iMPC-EPC colony size ([4]; EGF and bFGF added to CHIR99021 and A83-01): further increased

Nc1ccccc1NC(=O)c1ccc(CNC(=O)OCc2cccnc2)cc1 [MS-27-275, pyridin-3-ylmethyl-N-[[4-[(2-aminophenyl)carbamoyl]phenyl]methyl]carbamate]
IC50 [3]: 100 to 1000 nM

Cc1c[nH]c(-c2cnc(NCCNc3ccc(C#N)cn3)nc2-c2ccc(Cl)cc2Cl)n1 [CHIR99021, 6-(2-(4-(2,4-dichlorophenyl)-5-(4-methyl-1H-imidazol-2-yl)pyrimidin-2-ylamino)ethylamino)nicotinonitrile]
iMPC-EPC colony size ([4]; CHIR99021 combined with A83-01): increased

N=C(N)N1Cc2ccccc2C(O)C1 (stereo not shown) [4-hydroxydebrisoquine]
time of peak plasma level after gavage [5]: 1 h

CC1(C)NC(=O)C(CCCCCC(=O)[C@H]2CO2)NC(=O)C2CCCN2C(=O)[C@@H](Cc2ccccc2)NC1=O (stereo partly drawn) [Chlamydocin, (3R)-3-benzyl-6,6-dimethyl-9-[6-[(2R)-oxiran-2-yl]-6-oxohexyl]-1,4,7,10-tetrazabicyclo[10.3.0]pentadecane-2,5,8,11-tetrone]
IC50 [3]: ~0.15 nM

C[C@H](NC(=O)Cc1cc(F)cc(F)c1)C(=O)N[C@H]1N=C(c2ccccc2)c2ccccc2N(C)C1=O [Compound E]
IC50 [6]: 0.3 nM | effect on presenilase activity [7]: only weakly affects | induction of ALB gene expression [8]: effective

Nc1ccccc1NC(=O)CCCCCCC(=O)Nc1ccccc1 [BML-210, N1-(2-aminophenyl)-N8-phenyl-octanediamide]
IC50 [9]: ~80000 nM

Nc1ccccc1NC(=O)c1ccc(CNc2nccc(-c3cccnc3)n2)cc1 [MGCD0103, N-(2-aminophenyl)-4-[[(4-pyridin-3-ylpyrimidin-2-yl)amino]methyl]benzamide]
IC50 [3]: ~100 nM

NC(=O)c1ccc(-c2nc(-c3ccc4c(c3)OCCO4)c(-c3ccccn3)[nH]2)cc1 [D 4476, 4-[4-(2,3-Dihydro-1,4-benzodioxin-6-yl)-5-(2-pyridinyl)-IH-imidazol-2-yl]benzamide]
selectivity over SAPK2/p38 [10]: greater than 20 fold

Cc1cccc(-c2nn(C(=S)Nc3ccccc3)cc2-c2ccnc3ccccc23)n1 [A83-01, 3-(6-Methyl-2-pyridinyl)-N-phenyl-4-(4-quinolinyl)-1H-pyrazole-1-carbothioamide]
induction of ALB gene expression [8]: effective | iMPC-EPC colony size ([4]; CHIR99021 combined with A83-01): increased
